{"source": "patent US6569638B1", "about": "“Method for screening compounds for the treatment of neoplasia” (Cell Pathways, Inc, priority 2000, dated 2003)", "key": {"[1]": {"system": "aberrant crypt foci (ACF)", "test": "Azoxymethane-induced aberrant crypt foci model", "format": "in vivo, male Fisher 344 rats", "conditions": "for % Control (ACF/colon) / Mean ACF/colon (+SE): free base; for Mean ACF/colon (+SE): 5 weeks", "description": "The growth inhibition IC50 value obtained for Compound B was 0.7 μM in the SW-480 cell line. […] This established rodent model of azoxymethane (“AOM”)-induced carcinogenesis was used to assess the effects of Compound B (free base and salt) on colon cancer development in vivo. ACF are precursors to colonic tumors, and ACF inhibition is predictive of chemo-preventive efficacy.\nIn the rats in this experiment, ACF initiation was achieved by two consecutive weekly injections of the carcinogen. Compound B was administered one week prior to ACF initiation and for the duration of the experiment. ACFs were scored after 5 weeks of treatment. Compound B was administered orally to male Fisher 344 rats in the rat chow. Daily food consumption (mg/kg body weight) varied over the course of the study, and therefore Compound B dose was expressed a grams per kg of diet to provide a basis of comparison between doses. […] The experimental groups gained less weight than the controls, which was indicative of bioavailability. However, the weight differences were less than 10% and not considered to affect ACF formation."}, "CCRF-CEM": {"system": "CCRF-CEM", "test": "Neutral red growth inhibition", "format": "cell-based, human", "conditions": "Leukemia, HCl salt", "description": "(§1) Compound B's activity is not confined to activity against colon cancer cell lines or animal models of colon cancer. It has a broad range of anti-neoplastic effects in various neoplastic cell lines. Various types of human cancer cell lines were propagated under sterile conditions in RPMI 1640 medium with 10% fetal bovine serum, 2 mM L-glutamine and sodium bicarbonate. To determine growth inhibitory effects of Compound B, cells were seeded in 96-well plates at a density of 1000 cells per well. Twenty-four hours after plating, the cells were dosed with various concentrations of the free base of Compound B solubilized in DMSO (final concentration 0.1%). The effect of the drug on tumor cell growth was determined using the neutral red cytotoxicity assay following five days of continuous treatment. Neutral red is a dye that is selectively taken up by viable cells by an ATP-dependent transport mechanism."}, "Colo 205": {"system": "Colo 205", "test": "Neutral red growth inhibition", "format": "cell-based, human", "conditions": "Colo 205, Colon, free base", "description": "as §1"}, "DU145": {"system": "DU145", "test": "Neutral red growth inhibition", "format": "cell-based, human", "conditions": "DU145, Prostate, free base", "description": "as §1"}, "HCT-15": {"system": "HCT-15", "test": "Neutral red growth inhibition", "format": "cell-based, human", "conditions": "HCT-15, Colon, free base", "description": "as §1"}, "HT-29": {"system": "HT-29", "test": "Neutral red growth inhibition", "format": "cell-based, human", "conditions": "HT-29, Colon, free base", "description": "as §1"}, "MDA-MB-231": {"system": "MDA-MB-231", "test": "Neutral red growth inhibition", "format": "cell-based, human", "conditions": "MDA-MB-231, Breast, free base", "description": "as §1"}, "MDA-MB-435": {"system": "MDA-MB-435", "test": "Neutral red growth inhibition", "format": "cell-based, human", "conditions": "MDA-MB-435, Breast, free base", "description": "as §1"}, "NCI-H23": {"system": "NCI-H23", "test": "Neutral red growth inhibition", "format": "cell-based, human", "conditions": "NCI-H23, Lung, free base", "description": "as §1"}, "NCI-H322M": {"system": "NCI-H322M", "test": "Neutral red growth inhibition", "format": "cell-based, human", "conditions": "Lung, free base", "description": "as §1"}, "NCI-H460": {"system": "NCI-H460", "test": "Neutral red growth inhibition", "format": "cell-based, human", "conditions": "NCI-H460, Lung, free base", "description": "as §1"}, "NCI-H82": {"system": "NCI-H82", "test": "Neutral red growth inhibition", "format": "cell-based, human", "conditions": "NCI-H82, Lung, free base", "description": "as §1"}, "OVCAR": {"system": "OVCAR", "test": "Neutral red growth inhibition", "format": "cell-based, human", "conditions": "Ovary, HCl salt", "description": "as §1"}, "PC-3": {"system": "PC-3", "test": "Neutral red growth inhibition", "format": "cell-based, human", "conditions": "PC-3, Prostate, free base", "description": "as §1"}, "SW-620": {"system": "SW-620", "test": "Neutral red growth inhibition", "format": "cell-based, human", "conditions": "SW-620, Colon, free base", "description": "as §1"}, "UISO-BCA-1": {"system": "UISO-BCA-1", "test": "Neutral red growth inhibition", "format": "cell-based, human", "conditions": "UISO-BCA-1, Breast, free base", "description": "as §1"}}, "data": [{"smiles": "CC1=C(CC(=O)NCc2ccccc2)c2cc(F)ccc2/C1=C\\c1ccncc1.Cl", "note": "[Compound B, (Z)-5-fluoro-2-methyl-(4-pyridylidene)-3-(N-benzyl)indenylacetamide hydrochloride]", "values": [{"measurement": "% Control (ACF/colon)", "setting": "[1]; 0.5 g/kg diet", "value": 100, "unit": "%"}, {"measurement": "Mean ACF/colon (+SE)", "setting": "[1]; 0.5 g/kg diet", "value": "149 ± 14"}, {"measurement": "% Control (ACF/colon)", "setting": "[1]; 1 g/kg diet", "value": 75, "unit": "%"}, {"measurement": "Mean ACF/colon (+SE)", "setting": "[1]; 1 g/kg diet", "value": "111 ± 9"}, {"measurement": "% Control (ACF/colon)", "setting": "[1]; 1.5 g/kg diet", "value": 89, "unit": "%"}, {"measurement": "Mean ACF/colon (+SE)", "setting": "[1]; 1.5 g/kg diet", "value": "132 ± 4"}, {"measurement": "% Control (ACF/colon)", "setting": "[1]; 2.0 g/kg diet", "value": 72, "unit": "%"}, {"measurement": "Mean ACF/colon (+SE)", "setting": "[1]; 2.0 g/kg diet", "value": "107 ± 15"}, {"measurement": "body weight difference versus controls", "setting": "[1]; rats, Compound B in rat chow, over the experiment", "value": "less than 10%"}, {"measurement": "GI50", "setting": "CCRF-CEM", "value": 1400, "unit": "nM"}, {"measurement": "GI50", "setting": "Colo 205", "value": 1600, "unit": "nM"}, {"measurement": "GI90", "setting": "Colo 205", "value": 2400, "unit": "nM"}, {"measurement": "GI50", "setting": "DU145", "value": 1600, "unit": "nM"}, {"measurement": "GI90", "setting": "DU145", "value": 2800, "unit": "nM"}, {"measurement": "GI50", "setting": "HCT-15", "value": 1700, "unit": "nM"}, {"measurement": "GI90", "setting": "HCT-15", "value": 3000, "unit": "nM"}, {"measurement": "GI50", "setting": "HT-29", "value": 2100, "unit": "nM"}, {"measurement": "GI90", "setting": "HT-29", "value": 8000, "unit": "nM"}, {"measurement": "GI50", "setting": "MDA-MB-231", "value": 1800, "unit": "nM"}, {"measurement": "GI90", "setting": "MDA-MB-231", "value": 77600, "unit": "nM"}, {"measurement": "GI50", "setting": "MDA-MB-435", "value": 1600, "unit": "nM"}, {"measurement": "GI90", "setting": "MDA-MB-435", "value": 2300, "unit": "nM"}, {"measurement": "GI50", "setting": "NCI-H23", "value": 1700, "unit": "nM"}, {"measurement": "GI90", "setting": "NCI-H23", "value": 2500, "unit": "nM"}, {"measurement": "GI50", "setting": "NCI-H322M", "value": 2100, "unit": "nM"}, {"measurement": "GI90", "setting": "NCI-H322M", "value": 13200, "unit": "nM"}, {"measurement": "GI50", "setting": "NCI-H460", "value": 1900, "unit": "nM"}, {"measurement": "GI90", "setting": "NCI-H460", "value": 30000, "unit": "nM"}, {"measurement": "GI50", "setting": "NCI-H82", "value": 1700, "unit": "nM"}, {"measurement": "GI90", "setting": "NCI-H82", "value": 5800, "unit": "nM"}, {"measurement": "GI50", "setting": "OVCAR", "value": 1200, "unit": "nM"}, {"measurement": "GI50", "setting": "PC-3", "value": 1700, "unit": "nM"}, {"measurement": "GI90", "setting": "PC-3", "value": 82500, "unit": "nM"}, {"measurement": "GI50", "setting": "SW-620", "value": 1700, "unit": "nM"}, {"measurement": "GI90", "setting": "SW-620", "value": 2500, "unit": "nM"}, {"measurement": "GI50", "setting": "UISO-BCA-1", "value": 1500, "unit": "nM"}, {"measurement": "GI90", "setting": "UISO-BCA-1", "value": 4700, "unit": "nM"}]}]}
